Test results from the supplement of paper PMC4862054.

Columns and labels:
Assay in all cases: normalised viability (% of control), CellTiter-Blue; higher = more viable cells (about 100 = DMSO control)
Conditions in all cases: incubation time: 72 h
HCC1599 [1] = test system: HCC1599
Procedure, shortened: (§1)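 Compound dissolved in 5 µl medium was pre-loaded into 384-well plates, and breast cancer cell lines in 20 µl suspension were seeded on top and incubated 72 h. After adding 2.5 µl CellTiter-Blue reagent for 2 h at 37 °C, fluorescence was read at 560/590 nm. Plates were normalised to vehicle (100) and a positive kill control (0), with Z'-factor quality control. Each value is normalised viability at a single listed concentration from the series.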

CAL-120 [2] = test system: CAL-120
Procedure, shortened: as §1

CAL-148 [3] = test system: CAL-148
Protocol: (§2)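 DSRT, CellTiter-Blue viability, 72 h incubation. Signal is normalised to DMSO and benzethonium chloride controls. Value is the normalised response at dose 7.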

DU-4475 [4] = test system: DU-4475
Protocol: as §2

MDA-MB-453 [5] = test system: MDA-MB-453
Protocol: as §2

CAL-85-1 [6] = test system: CAL-85-1
Protocol: as §2

HDQ-P1 [7] = test system: HDQ-P1
Protocol: as §2

CAL-51 [8] = test system: CAL-51
Protocol: as §2

CAL-148 [9] = test system: CAL-148; remark: listed apart in the source
Protocol: (§3)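 DSRT, CellTiter-Blue viability, 72 h incubation. Signal is normalised to DMSO and benzethonium chloride controls. Value is the normalised response at dose 3.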

MFM-223 = test system: MFM-223
Protocol: as §3

DU-4475 [10] = test system: DU-4475; remark: listed apart in the source
Protocol: as §3

HCC1143 = test system: HCC1143
Protocol: as §3

BT-549 = test system: BT-549
Protocol: as §3

MDA-MB-468 = test system: MDA-MB-468
Protocol: as §3

MDA-MB-453 [11] = test system: MDA-MB-453; remark: listed apart in the source
Protocol: as §3

CAL-85-1 [12] = test system: CAL-85-1; remark: listed apart in the source
Protocol: as §3

HDQ-P1 [13] = test system: HDQ-P1; remark: listed apart in the source
Protocol: as §3

SK-BR-3 = test system: SK-BR-3
Protocol: as §3

HCC1599 [14] = test system: HCC1599; remark: listed apart in the source
Protocol: as §3

MDA-MB-436 = test system: MDA-MB-436
Protocol: as §3

Hs578T = test system: Hs578T
Protocol: as §3

MDA-MB-231 = test system: MDA-MB-231
Protocol: as §3

BT-474 = test system: BT-474
Protocol: as §3

CAL-51 [15] = test system: CAL-51; remark: listed apart in the source
Protocol: as §3

CAL-120 [16] = test system: CAL-120; remark: listed apart in the source
Protocol: as §3

HCC1937 = test system: HCC1937
Protocol: as §3

CAL-148 [17] = test system: CAL-148; remark: listed apart in the source
Protocol: (§4)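 DSRT, CellTiter-Blue viability, 72 h incubation. Signal is normalised to DMSO and benzethonium chloride controls. Value is the normalised response at dose 8.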

DU-4475 [18] = test system: DU-4475; remark: listed apart in the source
Protocol: as §4

MDA-MB-453 [19] = test system: MDA-MB-453; remark: listed apart in the source
Protocol: as §4

CAL-85-1 [20] = test system: CAL-85-1; remark: listed apart in the source
Protocol: as §4

HDQ-P1 [21] = test system: HDQ-P1; remark: listed apart in the source
Protocol: as §4

CAL-51 [22] = test system: CAL-51; remark: listed apart in the source
Protocol: as §4

Question: With `Nc1ccccc1NC(=O)c1ccc(CNC(=O)OCc2cccnc2)cc1` [Entinostat] as the molecule, how does the normalised viability (HCC1599 [1]; 10 nM) read?
Answer: 122%

Question: What about the normalised viability (HCC1599 [1]; 1000 nM) of the same molecule?
Answer: 86.6%

Question: What about the normalised viability (HCC1599 [1]; 10000 nM) of the same molecule?
Answer: 19.6%

Question: And the normalised viability (CAL-120 [2]; 10 nM)?
Answer: 90.1%

Question: What about the normalised viability (CAL-120 [2]; 1000 nM) of the same molecule?
Answer: 57.9%

Question: And the normalised viability (CAL-120 [2]; 10000 nM)?
Answer: 30.8%

Question: What about the normalised viability (CAL-148 [3]; 1000 nM) of the same molecule?
Answer: 78.8%

Question: And the normalised viability (DU-4475 [4]; 1000 nM)?
Answer: 121%

Question: And the normalised viability (MDA-MB-453 [5]; 1000 nM)?
Answer: 89.1%

Question: And the normalised viability (CAL-85-1 [6]; 1000 nM)?
Answer: 85.4%

Question: What about the normalised viability (HDQ-P1 [7]; 1000 nM) of the same molecule?
Answer: 111%

Question: What about the normalised viability (CAL-51 [8]; 1000 nM) of the same molecule?
Answer: 105%

Question: And the normalised viability (CAL-148 [9]; 10 nM)?
Answer: 93.3%

Question: What about the normalised viability (MFM-223; 100 nM) of the same molecule?
Answer: 100%

Question: And the normalised viability (DU-4475 [10]; 10 nM)?
Answer: 117%

Question: And the normalised viability (HCC1143; 100 nM)?
Answer: 82.2%

Question: And the normalised viability (BT-549; 100 nM)?
Answer: 91.5%

Question: And the normalised viability (MDA-MB-468; 100 nM)?
Answer: 110%

Question: And the normalised viability (MDA-MB-453 [11]; 10 nM)?
Answer: 120%

Question: What about the normalised viability (CAL-85-1 [12]; 10 nM) of the same molecule?
Answer: 96.7%

Question: What about the normalised viability (HDQ-P1 [13]; 10 nM) of the same molecule?
Answer: 102%

Question: What about the normalised viability (SK-BR-3; 100 nM) of the same molecule?
Answer: 85.6%

Question: What about the normalised viability (HCC1599 [14]; 100 nM) of the same molecule?
Answer: 93.3%

Question: And the normalised viability (MDA-MB-436; 100 nM)?
Answer: 83.5%

Question: And the normalised viability (Hs578T; 100 nM)?
Answer: 93.3%

Question: And the normalised viability (MDA-MB-231; 100 nM)?
Answer: 97.1%

Question: And the normalised viability (BT-474; 100 nM)?
Answer: 106%

Question: And the normalised viability (CAL-51 [15]; 10 nM)?
Answer: 114%

Question: What about the normalised viability (CAL-120 [16]; 100 nM) of the same molecule?
Answer: 85.4%

Question: And the normalised viability (HCC1937; 100 nM)?
Answer: 104%

Question: And the normalised viability (CAL-148 [17]; 3000 nM)?
Answer: 58.7%

Question: And the normalised viability (DU-4475 [18]; 3000 nM)?
Answer: 103%

Question: And the normalised viability (MDA-MB-453 [19]; 3000 nM)?
Answer: 50.3%

Question: And the normalised viability (CAL-85-1 [20]; 3000 nM)?
Answer: 53.7%

Question: What about the normalised viability (HDQ-P1 [21]; 3000 nM) of the same molecule?
Answer: 80%

Question: And the normalised viability (CAL-51 [22]; 3000 nM)?
Answer: 108%

Question: Which normalised viability (HCC1599 [1]; 1 nM) does the source give for `O=C(/C=C/c1cccnc1)NCCCCC1CCN(C(=O)c2ccccc2)CC1` [FK-866] here?
Answer: 116%

Question: What about the normalised viability (HCC1599 [1]; 100 nM) of the same molecule?
Answer: 19.5%

Question: And the normalised viability (HCC1599 [1]; 1000 nM)?
Answer: 17%

Question: What about the normalised viability (CAL-120 [2]; 1 nM) of the same molecule?
Answer: 107%

Question: And the normalised viability (CAL-120 [2]; 100 nM)?
Answer: 24.7%

Question: And the normalised viability (CAL-120 [2]; 1000 nM)?
Answer: 23.3%

Question: What about the normalised viability (CAL-148 [3]; 100 nM) of the same molecule?
Answer: 53.7%

Question: And the normalised viability (DU-4475 [4]; 100 nM)?
Answer: 6.4%

Question: What about the normalised viability (MDA-MB-453 [5]; 100 nM) of the same molecule?
Answer: 21.1%

Question: And the normalised viability (CAL-85-1 [6]; 100 nM)?
Answer: 54.6%

Question: What about the normalised viability (HDQ-P1 [7]; 100 nM) of the same molecule?
Answer: 48.9%

Question: What about the normalised viability (CAL-51 [8]; 100 nM) of the same molecule?
Answer: 44.3%

Question: What about the normalised viability (CAL-148 [9]; 1 nM) of the same molecule?
Answer: 91.5%

Question: What about the normalised viability (MFM-223; 10 nM) of the same molecule?
Answer: 23.2%

Question: What about the normalised viability (DU-4475 [10]; 1 nM) of the same molecule?
Answer: 84.9%

Question: And the normalised viability (HCC1143; 10 nM)?
Answer: 43.2%

Question: What about the normalised viability (BT-549; 10 nM) of the same molecule?
Answer: 38.6%

Question: And the normalised viability (MDA-MB-468; 10 nM)?
Answer: 8.4%

Question: And the normalised viability (MDA-MB-453 [11]; 1 nM)?
Answer: 86.1%

Question: What about the normalised viability (CAL-85-1 [12]; 1 nM) of the same molecule?
Answer: 103%

Question: What about the normalised viability (HDQ-P1 [13]; 1 nM) of the same molecule?
Answer: 120%

Question: What about the normalised viability (SK-BR-3; 10 nM) of the same molecule?
Answer: 91.2%

Question: And the normalised viability (HCC1599 [14]; 10 nM)?
Answer: 74.7%

Question: And the normalised viability (MDA-MB-436; 10 nM)?
Answer: 38%

Question: What about the normalised viability (Hs578T; 10 nM) of the same molecule?
Answer: 20.1%

Question: And the normalised viability (MDA-MB-231; 10 nM)?
Answer: 83.1%

Question: What about the normalised viability (BT-474; 10 nM) of the same molecule?
Answer: 91.6%

Question: What about the normalised viability (CAL-51 [15]; 1 nM) of the same molecule?
Answer: 102%

Question: What about the normalised viability (CAL-120 [16]; 10 nM) of the same molecule?
Answer: 55%

Question: What about the normalised viability (HCC1937; 10 nM) of the same molecule?
Answer: 91.1%

Question: What about the normalised viability (CAL-148 [17]; 300 nM) of the same molecule?
Answer: 45.6%

Question: And the normalised viability (DU-4475 [18]; 300 nM)?
Answer: 2.9%

Question: And the normalised viability (MDA-MB-453 [19]; 300 nM)?
Answer: 22.4%

Question: And the normalised viability (CAL-85-1 [20]; 300 nM)?
Answer: 54%

Question: What about the normalised viability (HDQ-P1 [21]; 300 nM) of the same molecule?
Answer: 51.6%

Question: And the normalised viability (CAL-51 [22]; 300 nM)?
Answer: 34.6%

Question: Which results are given for `Nc1nc(F)nc2c1ncn2[C@@H]1O[C@H](CO)[C@@H](O)[C@@H]1O` [Fludarabine]?
Answer: normalised viability (HCC1599 [1]; 10 nM): 102%; normalised viability (HCC1599 [1]; 1000 nM): 82.6%; normalised viability (HCC1599 [1]; 10000 nM): 89.5%; normalised viability (CAL-120 [2]; 10 nM): 82.3%; normalised viability (CAL-120 [2]; 1000 nM): 78.5%; normalised viability (CAL-120 [2]; 10000 nM): 81.5%; normalised viability (CAL-148 [3]; 1000 nM): 93.8%; normalised viability (DU-4475 [4]; 1000 nM): 99.5%; normalised viability (MDA-MB-453 [5]; 1000 nM): 108%; normalised viability (CAL-85-1 [6]; 1000 nM): 93.8%; normalised viability (HDQ-P1 [7]; 1000 nM): 98.4%; normalised viability (CAL-51 [8]; 1000 nM): 102%; normalised viability (CAL-148 [9]; 10 nM): 90.9%; normalised viability (MFM-223; 100 nM): 92.8%; normalised viability (DU-4475 [10]; 10 nM): 115%; normalised viability (HCC1143; 100 nM): 83%; normalised viability (BT-549; 100 nM): 107%; normalised viability (MDA-MB-468; 100 nM): 109%; normalised viability (MDA-MB-453 [11]; 10 nM): 109%; normalised viability (CAL-85-1 [12]; 10 nM): 101%; normalised viability (HDQ-P1 [13]; 10 nM): 103%; normalised viability (SK-BR-3; 100 nM): 99.9%; normalised viability (HCC1599 [14]; 100 nM): 105%; normalised viability (MDA-MB-436; 100 nM): 95.2%; normalised viability (Hs578T; 100 nM): 95.4%; normalised viability (MDA-MB-231; 100 nM): 95.3%; normalised viability (BT-474; 100 nM): 107%; normalised viability (CAL-51 [15]; 10 nM): 101%; normalised viability (CAL-120 [16]; 100 nM): 82.2%; normalised viability (HCC1937; 100 nM): 110%; normalised viability (CAL-148 [17]; 3000 nM): 84.5%; normalised viability (DU-4475 [18]; 3000 nM): 104%; normalised viability (MDA-MB-453 [19]; 3000 nM): 111%; normalised viability (CAL-85-1 [20]; 3000 nM): 96.7%; normalised viability (HDQ-P1 [21]; 3000 nM): 108%; normalised viability (CAL-51 [22]; 3000 nM): 104%
